# What was measured:
# [1] = Polymorphic stability: maturation / slurrying of the salts in various solvents; assay type: physicochemical
# Method: Example 6: Method for assessing polymorphic stability of the succinic acid salt and Form A of the fumaric acid salt of 5-chloro-3-(4-methanesulfonylphenyl)-6'-methyl-[2,3']bipyridinyl.
# Approximately 50-100 mg of the salts under investigation were suspended in 1ml of water, ethanol, 1-propanol, 2-propanol, 1-butanol, 2-butanol, tert-butanol, 1-pentanol, acetone, methyl ethyl ketone, isobutyl methyl ketone, ethyl formate, methyl acetate, ethyl acetate, propyl acetate, isopropyl acetate, butyl acetate, isobutyl acetate, tetrahydrofuran, 1,4-dioxane, toluene, acetonitrile and N-methyl pyrrolidine. […] The excess solvent was removed and the samples evaporated to dryness in a vacuum oven at 25 °C.
# [2] = DVS isotherm (hygroscopicity, hydrate formation); assay type: physicochemical; conditions: for hygroscopicity: DVS isotherm plot (Figure 4 / Figure 11)
# [3] = anhydrous crystalline forms I, II, III, IV and V; Journal of Pharmaceutical Sciences, 95, 1, 56-69 (2006); cited from earlier work
Compound,polymorphic conversion on slurrying ([1]; slurrying in an aliphatic alcohol or cyclic ether),hygroscopicity [2],"polymorphic changes when maturated in various solvents ([1]; Example 6: suspended in 1 ml of solvent, agitated at 25°C for 35 days)","stability with respect to hydrate formation ([2]; DVS isotherm plot, Figure 4)",instability of anhydrous crystalline forms [3]
"Cc1ccc(-c2ncc(Cl)cc2-c2ccc(S(C)(=O)=O)cc2)cn1.O=C(O)/C=C/C(=O)O [Form A of the fumaric acid salt, fumaric acid salt of 5-chloro-3-(4-methanesulfonylphenyl)-6'-methyl-[2,3']bipyridinyl]",Form B can be generated,relatively non-hygroscopic,,,
"Cc1ccc(-c2ncc(Cl)cc2-c2ccc(S(C)(=O)=O)cc2)cn1.O=C(O)CCC(=O)O [succinic acid salt, succinic acid salt of 5-chloro-3-(4-methanesulfonylphenyl)-6'-methyl-[2,3']bipyridinyl]",,relatively non-hygroscopic,lack of observed polymorphic changes,stable with respect to hydrate formation,
"Cc1ccc(-c2ncc(Cl)cc2-c2ccc(S(C)(=O)=O)cc2)cn1 [etoricoxib, 5-Chloro-3-(4-methanesulfonylphenyl)-6'-methyl-[2,3']bipyridinyl]",,,,,convert to hemihydrate
